ChEMBL document CHEMBL1201862, “PubChem BioAssay data set” (2004)
Active and inactive are the calls of the source.

Experiments:
LIM domain kinase 1 = LIM domain kinase 1 (Homo sapiens, UniProt P53667); experiment: Navigating the Kinome. Panel member name: LIMK1; type: functional
[1] = target: Serine/threonine-protein kinase pim-1 (Homo sapiens, UniProt P11309); type: functional
Serine/threonine-protein kinase pim-1, sequence (P11309 whole entry): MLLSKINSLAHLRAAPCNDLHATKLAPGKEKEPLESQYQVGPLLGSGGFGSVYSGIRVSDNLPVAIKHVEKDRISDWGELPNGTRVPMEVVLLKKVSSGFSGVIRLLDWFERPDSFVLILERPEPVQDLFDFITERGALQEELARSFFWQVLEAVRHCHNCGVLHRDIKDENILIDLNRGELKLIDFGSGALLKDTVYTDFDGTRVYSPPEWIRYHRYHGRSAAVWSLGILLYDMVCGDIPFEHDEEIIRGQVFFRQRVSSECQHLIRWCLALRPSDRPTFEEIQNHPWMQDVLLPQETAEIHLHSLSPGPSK

LIM domain kinase 1, sequence (P53667 whole entry, the tested form may be a part): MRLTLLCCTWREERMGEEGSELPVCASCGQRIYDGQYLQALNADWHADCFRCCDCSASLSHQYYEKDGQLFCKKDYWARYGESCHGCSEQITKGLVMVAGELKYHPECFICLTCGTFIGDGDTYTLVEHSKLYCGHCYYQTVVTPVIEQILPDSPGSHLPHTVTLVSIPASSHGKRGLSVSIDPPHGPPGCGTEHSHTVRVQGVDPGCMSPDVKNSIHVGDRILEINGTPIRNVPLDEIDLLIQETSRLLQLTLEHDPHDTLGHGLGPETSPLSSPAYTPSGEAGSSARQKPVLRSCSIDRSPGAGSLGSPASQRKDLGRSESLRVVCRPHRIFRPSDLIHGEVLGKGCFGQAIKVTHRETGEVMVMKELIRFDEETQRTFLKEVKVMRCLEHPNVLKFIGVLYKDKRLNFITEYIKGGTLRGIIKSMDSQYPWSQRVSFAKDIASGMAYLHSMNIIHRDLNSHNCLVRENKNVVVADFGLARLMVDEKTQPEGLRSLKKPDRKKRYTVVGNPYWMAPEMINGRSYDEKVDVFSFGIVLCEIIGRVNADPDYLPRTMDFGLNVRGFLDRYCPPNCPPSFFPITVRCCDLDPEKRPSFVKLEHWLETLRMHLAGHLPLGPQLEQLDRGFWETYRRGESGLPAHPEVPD

With `O=C(NCCc1cccs1)N1CC=C(c2c[nH]c3ncccc23)CC1` the Ki (LIM domain kinase 1) was > 3.16 µM (inactive) and the Ki [1] was 3.98 µM (active).
